Results published in ChEMBL document CHEMBL4680234, “Antibacterial AZT derivative regulates metastasis of breast cancer cells” (Eur J Med Chem, 2020).
Values after ≈ are worked out from the molar mass of the structure shown. Active and inactive are the calls of the source. The rule behind the calls is not given here.

Tests used:
[1] = system: MDA-MB-231; test: Inhibition of actin polymerization in human MDA-MB-231 cells assessed as reduction in lamellipodium formation at 20 to 40 uM measured after 6 hrs by Texas Red-conjugated phalloidin staining based fluorescence microscopic analysis; type: cell-based; conditions: dose 20-40 µM
[2] = system: MDA-MB-231; test: Antimigratory activity in human MDA-MB-231 cells assessed as reduction in wound closure at 40 uM measured after 18 to 36 hrs by microscopic analysis; type: functional, cell-based; conditions: time 18-36 hrs
[3] = system: Escherichia coli; test: Antibacterial activity against Escherichia coli KCTC 1682 assessed as reduction in bacterial growth incubated for 18 to 22 hrs by spectrophotometry based broth microdilution method; type: functional; conditions: time 18-22 hrs, read-out: MIC100
[4] = system: Pseudomonas aeruginosa; test: Antibacterial activity against Pseudomonas aeruginosa KCTC 1637 assessed as reduction in bacterial growth incubated for 18 to 22 hrs by spectrophotometry based broth microdilution method; type: functional; conditions: time 18-22 hrs, read-out: MIC100
[5] = system: Bacillus subtilis; test: Antibacterial activity against Bacillus subtilis KCTC 3068 assessed as reduction in bacterial growth incubated for 18 to 22 hrs by spectrophotometry based broth microdilution method; type: functional; conditions: time 18-22 hrs, read-out: MIC100
[6] = system: Staphylococcus aureus; test: Antibacterial activity against Staphylococcus aureus KCTC 1621 assessed as reduction in bacterial growth incubated for 18 to 22 hrs by spectrophotometry based broth microdilution method; type: functional; conditions: time 18-22 hrs, read-out: MIC100
[7] = system: Pseudomonas aeruginosa; test: Potency index, ratio of melittin MIC to test compound MIC for antibacterial activity against Pseudomonas aeruginosa KCTC 1637; type: functional
[8] = system: Bacillus subtilis; test: Potency index, ratio of melittin MIC to test compound MIC for antibacterial activity against Bacillus subtilis KCTC 3068; type: functional
[9] = system: Staphylococcus aureus; test: Potency index, ratio of melittin MIC to test compound MIC for antibacterial activity against Staphylococcus aureus KCTC 1621; type: functional
[10] = system: Erythrocyte; test: Hemolytic activity in sheep RBC at 16 ug/ml measured after 2 hrs by ELISA; type: cell-based, Ovis aries; conditions: dose 16 µg/ml
[11] = system: Erythrocyte; test: Hemolytic activity in sheep RBC measured after 2 hrs by ELISA; type: ADME, cell-based, Ovis aries
[12] = Therapeutic index, ratio of MHC for sheep RBC to geometric mean of peptide MIC for Escherichia coli KCTC 1682; type: toxicity; conditions: sheep red blood cells (erythrocytes), read-out: TI
[13] = Therapeutic index, ratio of MHC for sheep RBC to geometric mean of peptide MIC for Pseudomonas aeruginosa KCTC 1637; type: toxicity; conditions: sheep red blood cells (erythrocytes), read-out: TI
[14] = Therapeutic index, ratio of MHC for sheep RBC to geometric mean of peptide MIC for Bacillus subtilis KCTC 3068; type: toxicity; conditions: sheep red blood cells (erythrocytes), read-out: TI
[15] = Therapeutic index, ratio of MHC for sheep RBC to geometric mean of peptide MIC for Staphylococcus aureus KCTC 1621; type: toxicity; conditions: sheep red blood cells (erythrocytes), read-out: TI
[16] = system: Staphylococcus aureus; test: Antimicrobial activity against methicillin-resistant Staphylococcus aureus CCARM 3089 assessed as reduction in microbial growth incubated for 18 to 24 hrs by broth microdilution method; type: functional; conditions: time 18-24 hrs
[17] = system: Staphylococcus aureus; test: Antimicrobial activity against methicillin-resistant Staphylococcus aureus CCARM 3090 assessed as reduction in microbial growth incubated for 18 to 24 hrs by broth microdilution method; type: functional; conditions: time 18-24 hrs
[18] = system: Staphylococcus aureus; test: Antimicrobial activity against methicillin-resistant Staphylococcus aureus CCARM 3095 assessed as reduction in microbial growth incubated for 18 to 24 hrs by broth microdilution method; type: functional; conditions: time 18-24 hrs
[19] = system: Staphylococcus aureus; test: Potency index, ratio of melittin MIC to test compound MIC for antimicrobial activity against methicillin-resistant Staphylococcus aureus CCARM 3089; type: functional
[20] = system: Staphylococcus aureus; test: Potency index, ratio of melittin MIC to test compound MIC for antimicrobial activity against methicillin-resistant Staphylococcus aureus CCARM 3090; type: functional
[21] = system: Staphylococcus aureus; test: Potency index, ratio of melittin MIC to test compound MIC for antimicrobial activity against methicillin-resistant Staphylococcus aureus CCARM 3095; type: functional
[22] = system: MDA-MB-231; test: Cytotoxicity against human MDA-MB-231 cells assessed as reduction in cell viability at 50 uM measured after 48 hrs by EZCytox cell viability assay; type: cell-based; conditions: mda-mb-231, 48 h
[23] = system: MDA-MB-231; test: Antiinvasive activity in human MDA-MB-231 cells at 40 uM measured after 16 hrs using crystal violet staining microscopy based Boyden chamber assay; type: functional, cell-based
[24] = system: MDA-MB-231; test: Inhibition of cell motility in human MDA-MB-231 cells assessed as reduction in cell migration distance at 40 uM measured at 30 mins interval for 24 hrs by time-lapse […] analysis; type: functional, cell-based
[25] = system: Pseudomonas aeruginosa; test: Potency index, ratio of melittin MIC to test compound MIC for antimicrobial activity against multidrug-resistant Pseudomonas aeruginosa CCARM 2095 assessed as reduction in microbial growth
[26] = system: Pseudomonas aeruginosa; test: Potency index, ratio of melittin MIC to test compound MIC for antimicrobial activity against multidrug-resistant Pseudomonas aeruginosa CCARM 2109 assessed as reduction in microbial growth

Cc1cn([C@H]2C[C@H](NC(=O)CC34CC5CC(CC(C5)C3)C4)[C@@H](CNC(=O)CC34CC5CC(CC(C5)C3)C4)O2)c(=O)nc1N(CCCNC(=N)N)CCCNC(=N)N
inhibition [1]: Active
Activity [2]: Active
MIC [3]: 16 µg/mL (≈ 20.3 µM)
MIC [4]: 4 µg/mL (≈ 5.06 µM)
MIC [5]: 2 µg/mL (≈ 2.53 µM)
MIC [6]: 2 µg/mL (≈ 2.53 µM)
Ratio [7]: 4
Ratio [8]: 4
Ratio [9]: 4
Activity [10]: Non-Toxic
MHC [11]: 25 µg/mL
selectivity ratio [12]: 4.2
selectivity ratio [13]: 4.2
selectivity ratio [14]: 4.2
selectivity ratio [15]: 4.2
MIC [16]: 8 µg/mL
MIC [17]: 8 µg/mL
MIC [18]: 8 µg/mL
Ratio [19]: 2
Ratio [20]: 2
Ratio [21]: 2
Activity [22]: Non-Toxic
Activity [23]: Active
Activity [24]: Active
Ratio [25]: 2
Ratio [26]: 2
